Starred links: 1 amine or outer side, 2 acyl side, 3 side chain; linkers in the order of their positions; H or OH if unused. Non-standard residues stand in square brackets, D forms with d. Residues, ends and D or L forms follow the SMILES beside them. X6 = O=C([C@H](Cc1ccc(O)cc1)NC(=S)[C@H]1CCCN1[*:1])[*:2]; X5 = CC(C)C[C@H](NC(=S)[C@H](CC(C)C)N[*:1])C(=O)[*:2]; X4 = CC(C)C[C@H](N[*:1])C(=S)N1CCC[C@@H]1C(=O)[*:2]
Columns and labels:
in vitro [1] = conditions: human, microsomes
Protocol: (§1) A stability assessment of the peptides was done in simulated gastric (SGF) and intestinal (SIF) fluids and human liver microsomes. The degradation kinetics of the aliquoted samples at desired time points were analyzed through RP-HPLC.

[2] = assay type: physicochemical
Description: Since reduced solvation of S also contributes to the lipophilicity of the thioamidated peptides, we sought to estimate the global desolvation of the macrocyclic peptides, which is affected by solvation of both N(H) and C(S). […] Thus, we evaluated the desolvation potential of the cyclic peptides by determining the distribution coefficients in heptane-ethylene glycol (logDh/e), a solvent system that provides an experimental estimate of desolvation or hydrogen bond potential[38].

[3] = PAMPA passive permeability; assay type: in vitro ADME; conditions: for Papp: Pe Avg;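 on all read-outs here: passive permeability across an artificial membrane in 96-well pre-coated PAMPA plates, which lack transporters and efflux systems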
Protocol: Encouraged by this, the passive permeability of the analogs was evaluated using an artificial membrane (PAMPA), which measures permeability of compounds in the absence of transporters and efflux systems[32].
96-well BD Corning® pre-coated PAMPA plates were used following the supplier’s protocol, details in Supplementary Information.

in vitro [4] = conditions: both, human, plasma
in vitro [5] = conditions: pig, simulated intestinal fluid
physchem = conditions: pH 7.4
[6] = assay type: physicochemical; remark: listed apart in the source
pepsin = pepsin (Sus scrofa, UniProt P00791); assay: in vitro; conditions: simulated gastric fluid, pH 1.2
pepsin, sequence (P00791 60-385): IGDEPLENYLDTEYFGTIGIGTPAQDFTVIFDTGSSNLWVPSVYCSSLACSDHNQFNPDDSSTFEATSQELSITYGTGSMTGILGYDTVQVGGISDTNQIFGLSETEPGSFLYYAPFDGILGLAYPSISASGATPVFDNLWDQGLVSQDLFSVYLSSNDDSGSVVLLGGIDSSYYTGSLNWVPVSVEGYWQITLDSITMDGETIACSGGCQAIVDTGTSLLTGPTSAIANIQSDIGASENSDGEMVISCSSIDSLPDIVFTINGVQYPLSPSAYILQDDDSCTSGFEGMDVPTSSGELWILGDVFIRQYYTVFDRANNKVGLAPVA
Protocol: as §1

in vitro [7] = conditions: both, human, plasma; remark: listed apart in the source
Protocol: Blood was freshly drawn from three healthy adults, two male and one person of 26–28 year old. […] The plasma was separated by centrifugation. […] For checking metabolic stability, the required volume of plasma was pre-incubated at 37 °C prior to the experiment for 2 min, followed by spiking with the peptides. At different time points, plasma was aliquoted. The supernatant was separated and used for RP-HPLC quantification. Rapid Equilibrium Dialysis (RED) assay was performed to assess the plasma protein binding of the peptides following the supplier’s protocol.

Caco-2 cells = assay: in vitro; assay type: in vitro ADME, human; conditions: Caco-2
Protocol: (§2) The Caco-2 cell (HTB-37^TM from ATCC, procured from NCCS, Pune) monolayer was washed and pre-incubated at 37 °C and 5% CO2 for 30 min with HBSS-HEPES buffer containing 1% DMSO prior to experimentation. The assay was performed 21 days post-seeding of cells. TEER values were measured before starting and after the completion of the assay. Acceptor and donor well concentrations of the peptides and controls were assessed through LC-MS/MS.

in vitro [8] = assay type: in vitro ADME, human
Protocol: as §2
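Wherever Papp A-B + Elacridar avg is given: Caco-2 monolayers used 21 days after seeding in HBSS-HEPES buffer with 1% DMSO, donor and acceptor levels quantified by LC-MS/MS, TEER checked before and after.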
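Wherever Papp A-B + Elacridar set 1 is given: Caco-2 monolayers used 21 days after seeding in HBSS-HEPES buffer with 1% DMSO, donor and acceptor levels quantified by LC-MS/MS, TEER checked before and after.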
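Wherever Papp A-B + Elacridar set 2 is given: Caco-2 monolayers used 21 days after seeding in HBSS-HEPES buffer with 1% DMSO, donor and acceptor levels quantified by LC-MS/MS, TEER checked before and after.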
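Wherever Papp A-B avg is given: Caco-2 monolayers used 21 days after seeding in HBSS-HEPES buffer with 1% DMSO, donor and acceptor levels quantified by LC-MS/MS, TEER checked before and after.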

Protocol for human liver microsomes: as §1

Q: For `CC(C)C[C@@H]1NC(=O)[C@H](Cc2ccc(O)cc2)NC(=O)[C@H]2CCCN2C(=O)[C@H](CC(C)C)NC(=S)[C@H](CC(C)C)NC(=O)[C@@H](CC(C)C)NC1=O` [10b] (cyclo(L[dL][X5][dP]Y)), which microsomal CLint (in vitro [1]) is on record?
A: 73 µL/min/mg

Q: And the remaining at 5 min (in vitro [1])?
A: 85%

Q: What about the remaining at 10 min (in vitro [1]) of the same molecule?
A: 65%

Q: And the remaining at 20 min (in vitro [1])?
A: 49%

Q: And the remaining at 0.5 h (in vitro [1])?
A: 34%

Q: And the remaining at 0.75 h (in vitro [1])?
A: 28%

Q: And the remaining at 1 h (in vitro [1])?
A: 15%

Q: And the logD heptane ethylene glycol [2]?
A: 0.62

Q: And the “Pe Avg” value [3]?
A: 4.3 ×10⁻⁶ cm/s

Q: And the “Pe set1” value [3]?
A: 4.84 ×10⁻⁶ cm/s

Q: What about the “Pe set2” value [3] of the same molecule?
A: 3.05 ×10⁻⁶ cm/s

Q: What about the “Pe set3” value [3] of the same molecule?
A: 5.14 ×10⁻⁶ cm/s

Q: What about the Papp [3] of the same molecule?
A: 4.3 ×10⁻⁶ cm/s

Q: And the Half lives (human liver microsomes)?
A: 19.0

Q: And the half-life (in vitro [4])?
A: 23 h

Q: And the remaining at 1 h (in vitro [4])?
A: 91%

Q: What about the remaining at 3 h (in vitro [4]) of the same molecule?
A: 85%

Q: What about the remaining at 5 h (in vitro [4]) of the same molecule?
A: 80%

Q: And the remaining at 7 h (in vitro [4])?
A: 76%

Q: And the remaining at 9 h (in vitro [4])?
A: 74%

Q: What about the remaining at 12 h (in vitro [4]) of the same molecule?
A: 59%

Q: What about the remaining at 24 h (in vitro [4]) of the same molecule?
A: 47%

Q: What about the remaining at 36 h (in vitro [4]) of the same molecule?
A: 33%

Q: And the remaining at 48 h (in vitro [4])?
A: 25%

Q: What about the remaining at 60 h (in vitro [4]) of the same molecule?
A: 15%

Q: And the remaining at 72 h (in vitro [4])?
A: 7%

Q: What about the half-life (in vitro [5]) of the same molecule?
A: 1.6 h

Q: What about the remaining at 10 min (in vitro [5]) of the same molecule?
A: 71.7%

Q: What about the remaining at 0.5 h (in vitro [5]) of the same molecule?
A: 53.6%

Q: And the remaining at 1 h (in vitro [5])?
A: 47.1%

Q: And the remaining at 2 h (in vitro [5])?
A: 39%

Q: What about the remaining at 4 h (in vitro [5]) of the same molecule?
A: 32.1%

Q: What about the remaining at 8 h (in vitro [5]) of the same molecule?
A: 26.6%

Q: And the remaining at 12 h (in vitro [5])?
A: 16.6%

Q: And the remaining at 24 h (in vitro [5])?
A: 10.3%

Q: And the logD (physchem)?
A: 1.42

Q: And the “% solubility” value [6]?
A: 26%

Q: What about the half-life (pepsin) of the same molecule?
A: 0.283 h

Q: And the remaining at 5 min (pepsin)?
A: 72%

Q: What about the remaining at 10 min (pepsin) of the same molecule?
A: 57%

Q: What about the remaining at 20 min (pepsin) of the same molecule?
A: 47%

Q: What about the remaining at 0.5 h (pepsin) of the same molecule?
A: 38%

Q: And the remaining at 1 h (pepsin)?
A: 33%

Q: And the remaining at 2 h (pepsin)?
A: 27%

Q: What about the remaining at 4 h (pepsin) of the same molecule?
A: 23%

Q: What about the remaining at 8 h (pepsin) of the same molecule?
A: 17%

Q: And the remaining at 12 h (pepsin)?
A: 10%

Q: What about the remaining at 24 h (pepsin) of the same molecule?
A: 5%

Q: What about the fraction unbound (in vitro [7]) of the same molecule?
A: 0.31

Q: With `CC(C)C[C@@H]1NC(=O)[C@H](Cc2ccc(O)cc2)NC(=S)[C@H]2CCCN2C(=O)[C@H](CC(C)C)NC(=O)[C@H](CC(C)C)NC(=O)[C@@H](CC(C)C)NC1=O` [10d] (cyclo(LL[X6]L[dL])) as the molecule, how does the microsomal CLint (in vitro [1]) read?
A: 47 µL/min/mg

Q: And the remaining at 5 min (in vitro [1])?
A: 96%

Q: And the remaining at 10 min (in vitro [1])?
A: 71%

Q: And the remaining at 20 min (in vitro [1])?
A: 61%

Q: What about the remaining at 0.5 h (in vitro [1]) of the same molecule?
A: 50%

Q: And the remaining at 0.75 h (in vitro [1])?
A: 40%

Q: And the remaining at 1 h (in vitro [1])?
A: 20%

Q: What about the logD heptane ethylene glycol [2] of the same molecule?
A: 0.72

Q: What about the “Pe Avg” value [3] of the same molecule?
A: 4.2 ×10⁻⁶ cm/s

Q: And the “Pe set1” value [3]?
A: 2.03 ×10⁻⁶ cm/s

Q: What about the “Pe set2” value [3] of the same molecule?
A: 5.97 ×10⁻⁶ cm/s

Q: And the “Pe set3” value [3]?
A: 4.7 ×10⁻⁶ cm/s

Q: What about the Papp [3] of the same molecule?
A: 4.2 ×10⁻⁶ cm/s

Q: And the Half lives (human liver microsomes)?
A: 29.5

Q: What about the half-life (in vitro [4]) of the same molecule?
A: 20 h

Q: What about the remaining at 1 h (in vitro [4]) of the same molecule?
A: 86%

Q: What about the remaining at 3 h (in vitro [4]) of the same molecule?
A: 81%

Q: And the remaining at 5 h (in vitro [4])?
A: 78%

Q: And the remaining at 7 h (in vitro [4])?
A: 63%

Q: What about the remaining at 9 h (in vitro [4]) of the same molecule?
A: 59%

Q: And the remaining at 12 h (in vitro [4])?
A: 64%

Q: And the remaining at 24 h (in vitro [4])?
A: 46%

Q: And the remaining at 36 h (in vitro [4])?
A: 35%

Q: What about the remaining at 48 h (in vitro [4]) of the same molecule?
A: 31%

Q: And the remaining at 60 h (in vitro [4])?
A: 21%

Q: And the remaining at 72 h (in vitro [4])?
A: 19%

Q: What about the half-life (in vitro [5]) of the same molecule?
A: 1.35 h

Q: What about the remaining at 10 min (in vitro [5]) of the same molecule?
A: 79.4%

Q: What about the remaining at 0.5 h (in vitro [5]) of the same molecule?
A: 62.8%

Q: What about the remaining at 1 h (in vitro [5]) of the same molecule?
A: 56.2%

Q: And the remaining at 2 h (in vitro [5])?
A: 38.5%

Q: And the remaining at 4 h (in vitro [5])?
A: 31.9%

Q: And the remaining at 8 h (in vitro [5])?
A: 19.6%

Q: And the remaining at 12 h (in vitro [5])?
A: 11.2%

Q: And the remaining at 24 h (in vitro [5])?
A: 5.8%

Q: And the logD (physchem)?
A: 1.24

Q: And the “% solubility” value [6]?
A: 22%

Q: And the half-life (pepsin)?
A: 0.4 h

Q: And the remaining at 5 min (pepsin)?
A: 75%

Q: What about the remaining at 10 min (pepsin) of the same molecule?
A: 66%

Q: What about the remaining at 20 min (pepsin) of the same molecule?
A: 56%

Q: What about the remaining at 0.5 h (pepsin) of the same molecule?
A: 44%

Q: And the remaining at 1 h (pepsin)?
A: 37%

Q: And the remaining at 2 h (pepsin)?
A: 29%

Q: What about the remaining at 4 h (pepsin) of the same molecule?
A: 21%

Q: What about the remaining at 8 h (pepsin) of the same molecule?
A: 16%

Q: What about the remaining at 12 h (pepsin) of the same molecule?
A: 6%

Q: What about the remaining at 24 h (pepsin) of the same molecule?
A: 2%

Q: And the fraction unbound (in vitro [7])?
A: 0.03

Q: Which results are given for `CC(C)C[C@@H]1NC(=O)[C@H](Cc2ccc(O)cc2)NC(=O)[C@H]2CCCN2C(=S)[C@H](CC(C)C)NC(=O)[C@H](CC(C)C)NC(=O)[C@@H](CC(C)C)NC1=O` [10c] (cyclo(L[dL]L[X4]Y))?
A: microsomal CLint (in vitro [1]): 106 µL/min/mg; remaining at 5 min (in vitro [1]): 76%; remaining at 10 min (in vitro [1]): 56%; remaining at 20 min (in vitro [1]): 45%; remaining at 0.5 h (in vitro [1]): 35%; remaining at 0.75 h (in vitro [1]): 16%; remaining at 1 h (in vitro [1]): 17%; Papp A-B + Elacridar avg (Caco-2 cells): 0 ×10⁻⁶ cm/s; Papp A-B + Elacridar set 1 (Caco-2 cells): 0 ×10⁻⁶ cm/s; Papp A-B + Elacridar set 2 (Caco-2 cells): 0 ×10⁻⁶ cm/s; Papp A-B avg (Caco-2 cells): 0 cm/s; Papp A-B avg (second block) (Caco-2 cells): 0.00 cm/s; Papp A-B set 1 (Caco-2 cells): 0 cm/s; Papp A-B set 1 (second block) (Caco-2 cells): 0.00 cm/s; Papp A-B set 2 (Caco-2 cells): 0 cm/s; Papp A-B set 2 (second block) (Caco-2 cells): 0.00 cm/s; Papp AB+Elacridar (PAMPA Caco2 correlation) (Caco-2 cells): 0 ×10⁻⁶ cm/s; Papp B-A avg (second block) (Caco-2 cells): 5.3 ×10⁻⁶ cm/s; Papp B-A set 1 (second block) (Caco-2 cells): 4.5 ×10⁻⁶ cm/s; Papp B-A set 2 (second block) (Caco-2 cells): 6.1 ×10⁻⁶ cm/s; Papp B→A (in vitro [8]; Caco-2, Papp B-A + Elacridar avg): 0.6 ×10⁻⁶ cm/s; Papp B→A (in vitro [8]; Caco-2, Papp B-A avg): 5.26 ×10⁻⁶ cm/s; logD heptane ethylene glycol [2]: 0.72; Pe Avg [3]: 3.1 ×10⁻⁶ cm/s; Pe set1 [3]: 2.92 ×10⁻⁶ cm/s; Pe set2 [3]: 3.69 ×10⁻⁶ cm/s; Pe set3 [3]: 2.79 ×10⁻⁶ cm/s; Papp [3]: 3.1 ×10⁻⁶ cm/s; Half lives (human liver microsomes): 13.8; half-life (in vitro [4]): 21 h; remaining at 1 h (in vitro [4]): 87%; remaining at 3 h (in vitro [4]): 83%; remaining at 5 h (in vitro [4]): 78%; remaining at 7 h (in vitro [4]): 75%; remaining at 9 h (in vitro [4]): 64%; remaining at 12 h (in vitro [4]): 60%; remaining at 24 h (in vitro [4]): 44%; remaining at 36 h (in vitro [4]): 34%; remaining at 48 h (in vitro [4]): 26%; remaining at 60 h (in vitro [4]): 10%; remaining at 72 h (in vitro [4]): 12%; half-life (in vitro [5]): 0.567 h; remaining at 10 min (in vitro [5]): 70%; remaining at 0.5 h (in vitro [5]): 50.7%; remaining at 1 h (in vitro [5]): 46.6%; remaining at 2 h (in vitro [5]): 38.4%; remaining at 4 h (in vitro [5]): 29.3%; remaining at 8 h (in vitro [5]): 26.2%; remaining at 12 h (in vitro [5]): 20.6%; remaining at 24 h (in vitro [5]): 12.8%; logD (physchem): 1.27; % solubility [6]: 69%; half-life (pepsin): 0.333 h; remaining at 5 min (pepsin): 76%; remaining at 10 min (pepsin): 68%; remaining at 20 min (pepsin): 50%; remaining at 0.5 h (pepsin): 41%; remaining at 1 h (pepsin): 31%; remaining at 2 h (pepsin): 26%; remaining at 4 h (pepsin): 19%; remaining at 8 h (pepsin): 12%; remaining at 12 h (pepsin): 5%; remaining at 24 h (pepsin): 0%; fraction unbound (in vitro [7]): 0.24
